{"source": "patent US20190276793A1", "about": "“Methods and Apparatus for Regulation of Gene Expression Across a Large-Scale Solid Structure” (Massachusetts Institute of Technology, priority 2018, published 2019)", "test_system": "E. coli strain IPTG/GFP", "assay": "GFP induction by cured chemical signaling resin in the IPTG/GFP reporter strain", "type": "cell-based", "details": "IPTG 2.0 M, after UV-curing", "excerpt": "In some use cases, this prototype facilitates fluorometric assays of gene expression as follows: Strains with fluorescent protein outputs are constructed. The strains IPTG/GFP, AHL/GFP, and RHA/GFP each express a green fluorescent protein (GFP) under the control of promoters LacI, LuxR, and RhaBAD when induced by the chemicals IPTG, N-acyl homoserine lactone (AHL), Rhamnose (RHA), respectively. For orthogonal AHL and IPTG patterning, the strain AHL/RFP is also cloned to produce a differentiable red fluorescent protein (RFP) under AHL-inducible control. Also, gene constructs using combinatorial promoters (where IPTG.AHL/GFP equated to NAND logic function and IPTG.AHL/GFP equated to AND logic function) were cloned for HLM objects performing spatial patterning from two-input cell logic. These transcriptional regulators may be utilized for multi-signal pattern generation.\nIn a test of this prototype, different photopolymer resins (with embedded chemical signaling molecules) were created by mixing incremental concentrations and ratios of DMSO-solubilized inducer, IPTG, and uncured resin in low light. To rapidly manufacture test pieces, a VeroClear™ RGD810 tray was printed with 3×3 circular wells (10 mm diameter, 3 mm depth). […]", "data": [{"smiles": "CC(C)S[C@@H]1O[C@H](CO)[C@H](O)[C@H](O)[C@H]1O", "note": "[IPTG, Isopropyl β-D-1-thiogalactopyranoside]", "values": [{"measurement": "induction in E. coli strain IPTG/GFP", "value": "robust induction"}]}]}
